Here are results for eleven compounds from ChEMBL document CHEMBL4651402, “Screening of ~5500 FDA-approved drugs and clinical candidates for anti-SARS-CoV-2 activity” (2021).

Some results are limits rather than exact numbers.

The subject of the first data set is SARS-CoV-2. Kind of data set: microbe, parasite or virus in culture. The class given is functional, organism-based, Chlorocebus sabaeus, Vero C1008. The conditions noted are these: Severe acute respiratory syndrome coronavirus 2, Vero C1008, 48 h; read-out: IC50.
For the compound `COc1ccc2c(c1)CCC(c1ccccc1)=C2c1ccc(OCCN2CCCC2)cc1` [NAFOXIDINE], the IC50 was greater than 100 µM.

In the case of `NCC[C@H](Oc1ccc(C(F)(F)F)cc1)c1ccccc1` [SEPROXETINE], the IC50 is greater than 100 µM.

`Cc1c(CN2CCN(c3cccc(C(F)(F)F)c3)CC2)cc(-c2ccccc2)n1NC(=O)c1ccncc1` [SUDOTERB]: the IC50 was greater than 100 µM.

In the case of `CCN(CC)CCNC(=O)c1ccc(NS(C)(=O)=O)cc1` [SEMATILIDE], the IC50 is greater than 100 µM.

Regarding `CNCCCC1c2ccccc2C=Cc2ccccc21` [PROTRIPTYLINE], the IC50 was greater than 100 µM.

Consider `CCC1(CC)C(=O)NCC(C)C1=O` (stereo unspecified) [METHYPRYLON], for which the IC50 is greater than 25.1 µM.

For the compound `CCCC(C(=O)OCCN(CC)CC)(c1ccccc1)c1ccccc1` [PROADIFEN], the IC50 is greater than 100 µM.

`C[C@H]1c2ccccc2[C@@H](CCCN(C)C)c2cc(C(F)(F)F)ccc21`: the IC50 amounted to 10.5 µM.

For the compound `Cc1c(-c2ccccc2)oc2c(C(=O)OC(C)(C)CN3CCCCC3)cccc2c1=O` [TERFLAVOXATE], the IC50 was greater than 100 µM.

In the case of `CNCCCCOc1ccccc1Cc1ccccc1` [BIFEMELANE], the IC50 stood at 20.9 µM.

Turning to `COC(=O)C1C2CC3c4[nH]c5ccccc5c4CCN3CC2CC(OC(=O)c2cc(OC)c(OC)c(OC)c2)C1OC` (stereo unspecified), the IC50 is greater than 25.1 µM.

Still in this data set, the particulars now being: Severe acute respiratory syndrome coronavirus 2, Vero C1008, 48 h; read-out: pIC50 (converted).
As to `COc1ccc2c(c1)CCC(c1ccccc1)=C2c1ccc(OCCN2CCCC2)cc1` [NAFOXIDINE], the IC50 was greater than 100 µM.

Regarding `NCC[C@H](Oc1ccc(C(F)(F)F)cc1)c1ccccc1` [SEPROXETINE], the IC50 is greater than 100 µM.

Take `Cc1c(CN2CCN(c3cccc(C(F)(F)F)c3)CC2)cc(-c2ccccc2)n1NC(=O)c1ccncc1` [SUDOTERB]: the IC50 was greater than 100 µM.

Take `CCN(CC)CCNC(=O)c1ccc(NS(C)(=O)=O)cc1` [SEMATILIDE]: the IC50 is greater than 100 µM.

Turning to `CNCCCC1c2ccccc2C=Cc2ccccc21` [PROTRIPTYLINE], the IC50 was greater than 100 µM.

On to `CCC1(CC)C(=O)NCC(C)C1=O` (stereo unspecified) [METHYPRYLON], for which the IC50 is greater than 25.1 µM.

Take `CCCC(C(=O)OCCN(CC)CC)(c1ccccc1)c1ccccc1` [PROADIFEN]: the IC50 was greater than 100 µM.

`C[C@H]1c2ccccc2[C@@H](CCCN(C)C)c2cc(C(F)(F)F)ccc21`: the IC50 is 10.5 µM.

For the compound `Cc1c(-c2ccccc2)oc2c(C(=O)OC(C)(C)CN3CCCCC3)cccc2c1=O` [TERFLAVOXATE], the IC50 is greater than 100 µM.

In the case of `CNCCCCOc1ccccc1Cc1ccccc1` [BIFEMELANE], the IC50 is 20.9 µM.

With `COC(=O)C1C2CC3c4[nH]c5ccccc5c4CCN3CC2CC(OC(=O)c2cc(OC)c(OC)c(OC)c2)C1OC` (stereo unspecified), the IC50 was greater than 25.1 µM.

Tested on in the next data set: not listed separately
The data set can be described thus: in vitro. The conditions noted are these: chlorocebus sabaeus, Vero E6 (Vero C1008) cells, CC50.
`COc1ccc2c(c1)CCC(c1ccccc1)=C2c1ccc(OCCN2CCCC2)cc1` [NAFOXIDINE]: the CC50 at 48 h came out at 3.85 µM.

In turn, `NCC[C@H](Oc1ccc(C(F)(F)F)cc1)c1ccccc1` [SEPROXETINE] showed a CC50 at 48 h of 10.6 µM.

As for `Cc1c(CN2CCN(c3cccc(C(F)(F)F)c3)CC2)cc(-c2ccccc2)n1NC(=O)c1ccncc1` [SUDOTERB], the CC50 at 48 h was roughly 14.3 µM.

On to `CCN(CC)CCNC(=O)c1ccc(NS(C)(=O)=O)cc1` [SEMATILIDE], for which the CC50 at 48 h was greater than 100 µM.

Regarding `CCC1(CC)C(=O)NCC(C)C1=O` (stereo unspecified) [METHYPRYLON], the CC50 at 48 h is greater than 25.1 µM.

In turn, `CCCC(C(=O)OCCN(CC)CC)(c1ccccc1)c1ccccc1` [PROADIFEN] registered a CC50 at 48 h of 24 µM.

In the case of `C[C@H]1c2ccccc2[C@@H](CCCN(C)C)c2cc(C(F)(F)F)ccc21`, the CC50 at 48 h turned out to be 12 µM.

In turn, `Cc1c(-c2ccccc2)oc2c(C(=O)OC(C)(C)CN3CCCCC3)cccc2c1=O` [TERFLAVOXATE] showed a CC50 at 48 h of roughly 63.1 µM.

Turning to `COC(=O)C1C2CC3c4[nH]c5ccccc5c4CCN3CC2CC(OC(=O)c2cc(OC)c(OC)c(OC)c2)C1OC` (stereo unspecified), the CC50 at 48 h amounted to 11.5 µM.

The same data set, now with this note: chlorocebus sabaeus, Vero E6 (Vero C1008) cells, pCC50.
Turning to `COc1ccc2c(c1)CCC(c1ccccc1)=C2c1ccc(OCCN2CCCC2)cc1` [NAFOXIDINE], the CC50 at 48 h is 3.8 µM.

In the case of `NCC[C@H](Oc1ccc(C(F)(F)F)cc1)c1ccccc1` [SEPROXETINE], the CC50 at 48 h was 10.5 µM.

Regarding `Cc1c(CN2CCN(c3cccc(C(F)(F)F)c3)CC2)cc(-c2ccccc2)n1NC(=O)c1ccncc1` [SUDOTERB], the CC50 at 48 h is roughly 14.1 µM.

As to `CCN(CC)CCNC(=O)c1ccc(NS(C)(=O)=O)cc1` [SEMATILIDE], the CC50 at 48 h was greater than 100 µM.

Turning to `CCC1(CC)C(=O)NCC(C)C1=O` (stereo unspecified) [METHYPRYLON], the CC50 at 48 h is greater than 25.1 µM.

Take `CCCC(C(=O)OCCN(CC)CC)(c1ccccc1)c1ccccc1` [PROADIFEN]: the CC50 at 48 h is 24 µM.

`C[C@H]1c2ccccc2[C@@H](CCCN(C)C)c2cc(C(F)(F)F)ccc21`: the CC50 at 48 h is 12 µM.

As to `Cc1c(-c2ccccc2)oc2c(C(=O)OC(C)(C)CN3CCCCC3)cccc2c1=O` [TERFLAVOXATE], the CC50 at 48 h was roughly 63.1 µM.

Compound `COC(=O)C1C2CC3c4[nH]c5ccccc5c4CCN3CC2CC(OC(=O)c2cc(OC)c(OC)c(OC)c2)C1OC` (stereo unspecified) gave a CC50 at 48 h of 11.5 µM.

Still in this data set, the particulars now being: chlorocebus sabaeus, vero c1008, CC50.
Turning to `CNCCCC1c2ccccc2C=Cc2ccccc21` [PROTRIPTYLINE], the CC50 at 48 h came out at 26.3 µM.

On to `CNCCCCOc1ccccc1Cc1ccccc1` [BIFEMELANE], for which the CC50 at 48 h stood at 26.9 µM.

The same data set, now with this note: chlorocebus sabaeus, vero c1008, pCC50.
The compound `CNCCCC1c2ccccc2C=Cc2ccccc21` [PROTRIPTYLINE] gave a CC50 at 48 h of 26.3 µM.

For `CNCCCCOc1ccccc1Cc1ccccc1` [BIFEMELANE], the CC50 at 48 h is 26.9 µM.

Another data set concerns SARS-CoV-2. The data set can be described thus: microbe, parasite or virus in culture. Particulars: Severe acute respiratory syndrome coronavirus 2, Vero C1008, 48 h.
Turning to `COc1ccc2c(c1)CCC(c1ccccc1)=C2c1ccc(OCCN2CCCC2)cc1` [NAFOXIDINE], the IC50 is greater than 100 µM.

`NCC[C@H](Oc1ccc(C(F)(F)F)cc1)c1ccccc1` [SEPROXETINE]: the IC50 was 7.59 µM.

Compound `Cc1c(CN2CCN(c3cccc(C(F)(F)F)c3)CC2)cc(-c2ccccc2)n1NC(=O)c1ccncc1` [SUDOTERB] yielded an IC50 greater than 100 µM.

On to `CCN(CC)CCNC(=O)c1ccc(NS(C)(=O)=O)cc1` [SEMATILIDE], for which the IC50 was 3.89 µM.

With `CNCCCC1c2ccccc2C=Cc2ccccc21` [PROTRIPTYLINE], the IC50 is greater than 100 µM.

For the compound `CCC1(CC)C(=O)NCC(C)C1=O` (stereo unspecified) [METHYPRYLON], the IC50 stood at 18.4 µM.

The compound `CCCC(C(=O)OCCN(CC)CC)(c1ccccc1)c1ccccc1` [PROADIFEN] displayed an IC50 of 5.13 µM.

Consider `C[C@H]1c2ccccc2[C@@H](CCCN(C)C)c2cc(C(F)(F)F)ccc21`, for which the IC50 was greater than 100 µM.

Compound `Cc1c(-c2ccccc2)oc2c(C(=O)OC(C)(C)CN3CCCCC3)cccc2c1=O` [TERFLAVOXATE] registered an IC50 greater than 100 µM.

Compound `CNCCCCOc1ccccc1Cc1ccccc1` [BIFEMELANE] returned an IC50 greater than 100 µM.

The compound `COC(=O)C1C2CC3c4[nH]c5ccccc5c4CCN3CC2CC(OC(=O)c2cc(OC)c(OC)c(OC)c2)C1OC` (stereo unspecified) displayed an IC50 greater than 20 µM.

Still in this data set, the particulars now being: Severe acute respiratory syndrome coronavirus 2, Vero C1008, 48 h, read-out: pIC50 (converted).
`COc1ccc2c(c1)CCC(c1ccccc1)=C2c1ccc(OCCN2CCCC2)cc1` [NAFOXIDINE]: the IC50 was greater than 100 µM.

In the case of `NCC[C@H](Oc1ccc(C(F)(F)F)cc1)c1ccccc1` [SEPROXETINE], the IC50 was 7.59 µM.

As for `Cc1c(CN2CCN(c3cccc(C(F)(F)F)c3)CC2)cc(-c2ccccc2)n1NC(=O)c1ccncc1` [SUDOTERB], the IC50 is greater than 100 µM.

For the compound `CCN(CC)CCNC(=O)c1ccc(NS(C)(=O)=O)cc1` [SEMATILIDE], the IC50 is 3.89 µM.

Turning to `CNCCCC1c2ccccc2C=Cc2ccccc21` [PROTRIPTYLINE], the IC50 is greater than 100 µM.

Consider `CCC1(CC)C(=O)NCC(C)C1=O` (stereo unspecified) [METHYPRYLON], for which the IC50 is 18.2 µM.

As for `CCCC(C(=O)OCCN(CC)CC)(c1ccccc1)c1ccccc1` [PROADIFEN], the IC50 is 5.13 µM.

Turning to `C[C@H]1c2ccccc2[C@@H](CCCN(C)C)c2cc(C(F)(F)F)ccc21`, the IC50 was greater than 100 µM.

With `Cc1c(-c2ccccc2)oc2c(C(=O)OC(C)(C)CN3CCCCC3)cccc2c1=O` [TERFLAVOXATE], the IC50 is greater than 100 µM.

As to `CNCCCCOc1ccccc1Cc1ccccc1` [BIFEMELANE], the IC50 was greater than 100 µM.

With `COC(=O)C1C2CC3c4[nH]c5ccccc5c4CCN3CC2CC(OC(=O)c2cc(OC)c(OC)c(OC)c2)C1OC` (stereo unspecified), the IC50 is greater than 20 µM.
